US9149038B2, “4-amino-6-(heterocyclic)picolinates and 6-amino-2-(heterocyclic)pyrimidine-4-carboxylates and their use as herbicides” (Dow AgroSciences LLC, priority 2013, dated 2015)
Like-named read-outs stand apart in the source and are kept apart here.

Tests used:
[1] = test system: Key Broadleaf Weed and Crop Species; test: Post-Emergent Test II: postemergent herbicidal activity, visual rating after 14 d (Table 7); format: in vivo; conditions: post-emergence, 336 h; for pest or weed control at 35 g/ha: 35 g ai/ha; for pest or weed control at 70 g/ha: 70 g ai/ha; for pest or weed control at 140 g/ha: 140 g ai/ha
Summary of the method: (§1)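 Scoring is visual, 0-100, at 14 d after application, comparing treated with untreated plants. Application: overhead track spray at 187 L/ha onto seedlings at 1-2 true leaves, in surfactant/crop-oil carrier.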

[2] = test system: Key Grass and Sedge Weeds as well as Grass Crops; test: Post-Emergent Test II: postemergent herbicidal activity, visual rating after 14 d (Table 8); format: in vivo; conditions: post-emergence, 336 h; for pest or weed control at 35 g/ha: 35 g ai/ha; for pest or weed control at 70 g/ha: 70 g ai/ha; for pest or weed control at 140 g/ha: 140 g ai/ha
Summary of the method: as §1

[3] = lambsquarters (Chenopodium album), read-out: Visual Growth Reduction (%) 14 Days After Application CHEAL
[4] = oilseed rape, canola (Brassica napus), read-out: Visual Growth Reduction (%) 14 Days After Application BRSNN
[5] = redroot pigweed (Amaranthus retroflexus), read-out: Visual Growth Reduction (%) 14 Days After Application AMARE
[6] = sunflower (Helianthus annuus), read-out: Visual Growth Reduction (%) 14 Days After Application HELAN
[7] = velvetleaf (Abutilon theophrasti), read-out: Visual Growth Reduction (%) 14 Days After Application ABUTH
[8] = wild poinsettia (Euphorbia heterophylla), read-out: Visual Growth Reduction (%) 14 Days After Application EPHHL
[9] = barnyardgrass (Echinochloa crus-galli), read-out: Visual Growth Reduction (%) 14 Days After Application ECHCG
[10] = giant foxtail (Setaria faberi), read-out: Visual Growth Reduction (%) 14 Days After Application SETFA
[11] = maize, corn (Zea mays), read-out: Visual Growth Reduction (%) 14 Days After Application ZEAMX
[12] = rice (Oryza sativa), read-out: Visual Growth Reduction (%) 14 Days After Application ORYSA
[13] = wheat, spring (Triticum aestivum), read-out: Visual Growth Reduction (%) 14 Days After Application TRZAS
[14] = yellow nutsedge (Cyperus esculentus), read-out: Visual Growth Reduction (%) 14 Days After Application CYPES

Nc1c(Cl)c(C(=O)O)nc(-c2cc3c(cc2F)OC(F)(F)O3)c1Cl [Compound 3]
85 to 94%: pest or weed control at 140 g/ha [1, 6]
0 to 29%: pest or weed control at 35 g/ha [1, 3] | pest or weed control at 70 g/ha [1, 3] | pest or weed control at 35 g/ha [1, 4] | pest or weed control at 70 g/ha [1, 4] | pest or weed control at 140 g/ha [1, 4] | pest or weed control at 35 g/ha [1, 5] | pest or weed control at 35 g/ha [1, 6] | pest or weed control at 70 g/ha [1, 6] | pest or weed control at 35 g/ha [1, 7] | pest or weed control at 70 g/ha [1, 7] | pest or weed control at 140 g/ha [1, 7] | pest or weed control at 35 g/ha [1, 8] | pest or weed control at 70 g/ha [1, 8] | pest or weed control at 140 g/ha [1, 8] | pest or weed control at 35 g/ha [2, 9] | pest or weed control at 70 g/ha [2, 9] | pest or weed control at 140 g/ha [2, 9] | pest or weed control at 35 g/ha [2, 10] | pest or weed control at 70 g/ha [2, 10] | pest or weed control at 140 g/ha [2, 10] | pest or weed control at 35 g/ha [2, 11] | pest or weed control at 70 g/ha [2, 11] | pest or weed control at 140 g/ha [2, 11] | pest or weed control at 35 g/ha [2, 12] | pest or weed control at 70 g/ha [2, 12] | pest or weed control at 140 g/ha [2, 12] | pest or weed control at 35 g/ha [2, 13] | pest or weed control at 70 g/ha [2, 13] | pest or weed control at 140 g/ha [2, 13] | pest or weed control at 35 g/ha [2, 14] | pest or weed control at 70 g/ha [2, 14] | pest or weed control at 140 g/ha [2, 14]
95 to 100%: pest or weed control at 70 g/ha [1, 5] | pest or weed control at 140 g/ha [1, 5]
45 to 59%: pest or weed control at 140 g/ha [1, 3]
